Measured values as given in patent publication US20230093099A1, “COMPOUNDS AND METHODS OF TREATING CANCERS” (CULLGEN (SHANGHAI), INC., priority 2019, published 2023).

The compounds below were run on RS4;11 cells (assay: Cell viability assay (CellTiter-Glo) in RS4;11 cells). Settings: Homo sapiens, 72 h; RS4;11 ALL cells treated for three days; read-out: cell viability inhibition IC50.
Format: cell-based
How it was run: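 Three-day compound treatment of RS4;11 ALL cells (5000/well, 3-fold dilution series of 8 or 12 points), with IC50 from a nonlinear least-squares fit to CellTiter-Glo viability data.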

Row | Structure (SMILES) | IC50
1 | O=C1CCC(N2C(=O)c3ccc(NCCCCCCCC(=O)N4CCC(n5cc(-c6cnc7cccc(-c8cc(F)c(CN9CCOCC9)c(F)c8)c7n6)cn5)CC4)cc3C2=O)C(=O)N1 (centres unmarked) [JA-187, 5-((8-(4-(4-(8-(3,5-difluoro-4-(morpholinomethyl)phenyl)quinoxalin-2-yl)-1H-pyrazol-1-yl)piperidin-1-yl)-8-oxooctyl)amino)-2-(2,6-dioxopiperidin-3-yl)isoindoline-1,3-dione] | < 0.1 µM

Same assay, conditions: Homo sapiens, 72 h; RS4;11 cells; cell viability, 3 days, CellTiter-Glo; read-out: IC50

Row | Structure (SMILES) | IC50
2 | CS(=O)(=O)c1ccc(-c2cccc3nc(Nc4ccc(N5CCN(CC(=O)NCCCNc6cccc7c6C(=O)N(C6CCC(=O)NC6=O)C7=O)CC5)cc4)nn23)cc1 (centres unmarked) [JA-111, N-(3-((2-(2,6-Dioxopiperidin-3-yl)-1,3-dioxoisoindolin-4-yl)amino)propyl)-2-(4-(4-((5-(4-(methylsulfonyl)phenyl)-[1,2,4]triazolo[1,5-a]pyridin-2-yl)amino)phenyl)piperazin-1-yl)acetamide] | > 10 µM
3 | CS(=O)(=O)c1ccc(-c2cccc3nc(Nc4ccc(N5CCN(CC(=O)NCCCCNc6cccc7c6C(=O)N(C6CCC(=O)NC6=O)C7=O)CC5)cc4)nn23)cc1 (centres unmarked) [JA-109, N-(4-((2-(2,6-Dioxopiperidin-3-yl)-1,3-dioxoisoindolin-4-yl)amino)butyl)-2-(4-(4-((5-(4-(methylsulfonyl)phenyl)-[1,2,4]triazolo[1,5-a]pyridin-2-yl)amino)phenyl)piperazin-1-yl)acetamide] | > 10 µM
4 | Cc1ncsc1-c1ccc(CNC(=O)[C@@H]2C[C@@H](O)CN2C(=O)[C@@H](NC(=O)CCOCCOCCOCCOCCC(=O)N2CCC(n3cc(-c4cnc5cccc(-c6cc(F)c(CN7CCOCC7)c(F)c6)c5n4)cn3)CC2)C(C)(C)C)cc1 [JA-061, (2S,4R)-1-[(2S)-2-[3-[2-[2-[2-[3-[4-[4-[8-[3,5-Difluoro-4-(morpholinomethyl)phenyl]quinoxalin-2-yl]pyrazol-1-yl]-1-piperidyl]-3-oxo-propoxy]ethoxy]ethoxy]ethoxy]propanoylamino]-3,3-dimethyl-butanoyl]-4-hydroxy-N-[[4-(4-methylthiazol-5-yl)phenyl]methyl]pyrrolidine-2-carboxamide] | > 10 µM
5 | Cc1ncsc1-c1ccc(CNC(=O)[C@@H]2C[C@@H](O)CN2C(=O)[C@@H](NC(=O)CCCNC(=O)CN2CCN(c3ccc(Nc4nc5cccc(-c6ccc(S(C)(=O)=O)cc6)n5n4)cc3)CC2)C(C)(C)C)cc1 [JA-125, (2S,4R)-1-((S)-3,3-Dimethyl-2-(4-(2-(4-(4-((5-(4-(methylsulfonyl)phenyl)-[1,2,4]triazolo[1,5-a]pyridin-2-yl)amino)phenyl)piperazin-1-yl)acetamido)butanamido)butanoyl)-4-hydroxy-N-(4-(4-methylthiazol-5-yl)benzyl)pyrrolidine-2-carboxamide] | > 10 µM
6 | CS(=O)(=O)c1ccc(-c2cccc3nc(Nc4ccc(N5CCN(CC(=O)NCCCNc6ccc7c(c6)C(=O)N(C6CCC(=O)NC6=O)C7=O)CC5)cc4)nn23)cc1 (centres unmarked) [JA-210, N-(3-((2-(2,6-Dioxopiperidin-3-yl)-1,3-dioxoisoindolin-5-yl)amino)propyl)-2-(4-(4-((5-(4-(methylsulfonyl)phenyl)-[1,2,4]triazolo[1,5-a]pyridin-2-yl)amino)phenyl)piperazin-1-yl)acetamide] | > 10 µM
7 | Cc1ncsc1-c1ccc(CNC(=O)[C@@H]2C[C@@H](O)CN2C(=O)[C@@H](NC(=O)COCCOCCOCC(=O)N2CCC(n3cc(-c4cnc5cccc(-c6cc(F)c(CN7CCOCC7)c(F)c6)c5n4)cn3)CC2)C(C)(C)C)cc1 [JA-053, (2S,4R)-1-[(2S)-2-[[2-[2-[2-[2-[4-[4-[8-[3,5-Difluoro-4-(morpholinomethyl)phenyl]quinoxalin-2-yl]pyrazol-1-yl]-1-piperidyl]-2-oxo-ethoxy]ethoxy]ethoxy]acetyl]amino]-3,3-dimethyl-butanoyl]-4-hydroxy-N-[[4-(4-methylthiazol-5-yl)phenyl]methyl]pyrrolidine-2-carboxamide] | > 10 µM

The next compounds have a lower IC50 than those just listed; values first:

Row | IC50 | Structure (SMILES)
8 | 2.64 µM | Cc1cnc(Nc2ccc(N3CCN(C(=O)CCOCCOCCOCCOCCOCCNc4ccc5c(c4)C(=O)N(C4CCC(=O)NC4=O)C5=O)CC3)cc2)nc1Nc1cccc(S(=O)(=O)NC(C)(C)C)c1 (centres unmarked) [JA-236, N-(tert-butyl)-3-((2-((4-(4-(1-((2-(2,6-dioxopiperidin-3-yl)-1,3-dioxoisoindolin-5-yl)amino)-3,6,9,12,15-pentaoxaoctadecan-18-oyl)piperazin-1-yl)phenyl)amino)-5-methylpyrimidin-4-yl)amino)benzenesulfonamide]
9 | 0.0036 µM | O=C1CCC(N2Cc3cc(OCCCCCC(=O)N4CCC(n5cc(-c6cnc7cccc(-c8cc(F)c(CN9CCOCC9)c(F)c8)c7n6)cn5)CC4)ccc3C2=O)C(=O)N1 (centres unmarked) [JA-263, 3-(5-((6-(4-(4-(8-(3,5-difluoro-4-(morpholinomethyl)phenyl)quinoxalin-2-yl)-1H-pyrazol-1-yl)piperidin-1-yl)-6-oxohexyl)oxy)-1-oxoisoindolin-2-yl)piperidine-2,6-dione]
10 | 0.0544 µM | O=C1CCC(N2C(=O)c3ccc(NCCCCCCCC(=O)N4CCC(n5cc(-c6cnc7cccc(-c8cc(F)c(CN9CCOCC9)c(F)c8)c7n6)cn5)CC4)cc3C2=O)C(=O)N1 (centres unmarked) [JA-187, 5-((8-(4-(4-(8-(3,5-difluoro-4-(morpholinomethyl)phenyl)quinoxalin-2-yl)-1H-pyrazol-1-yl)piperidin-1-yl)-8-oxooctyl)amino)-2-(2,6-dioxopiperidin-3-yl)isoindoline-1,3-dione]
11 | 7.54 µM | O=C1CCC(N2C(=O)c3cccc(NCCOCCOCCOCCOCCOCCC(=O)N4CCC(n5cc(-c6cnc7cccc(-c8cc(F)c(CN9CCOCC9)c(F)c8)c7n6)cn5)CC4)c3C2=O)C(=O)N1 (centres unmarked) [JA-043, 4-[2-[2-[2-[2-[2-[3-[4-[4-[8-[3,5-Difluoro-4-(morpholinomethyl)phenyl]quinoxalin-2-yl]pyrazol-1-yl]-1-piperidyl]-3-oxo-propoxy]ethoxy]ethoxy]ethoxy]ethoxy]ethylamino]-2-(2,6-dioxo-3-piperidyl)isoindoline-1,3-dione]
12 | 0.573 µM | CS(=O)(=O)c1ccc(-c2cccc3nc(Nc4ccc(N5CCN(C(=O)CCOCCOCCOCCOCCNc6cccc7c6C(=O)N(C6CCC(=O)NC6=O)C7=O)CC5)cc4)nn23)cc1 (centres unmarked) [JA-080, 2-(2,6-Dioxo-piperidin-3-yl)-4-{2-[2-(2-{2-[3-(4-{4-[5-(4-methanesulfonyl-phenyl)-[1,2,4]triazolo[1,5-a]pyridin-2-ylamino]-phenyl}-piperazin-1-yl)-3-oxo-propoxy]-ethoxy}-ethoxy)-ethoxy]-ethylamino}-isoindole-1,3-dione]
13 | 1.15 µM | CS(=O)(=O)c1ccc(-c2cccc3nc(Nc4ccc(N5CCN(CCCCCCNc6ccc7c(c6)C(=O)N(C6CCC(=O)NC6=O)C7=O)CC5)cc4)nn23)cc1 (centres unmarked) [JA-254, 2-(2,6-Dioxopiperidin-3-yl)-5-((6-(4-(4-((5-(4-(methylsulfonyl)phenyl)-[1,2,4]triazolo[1,5-a]pyridin-2-yl)amino)phenyl)piperazin-1-yl)hexyl)amino)isoindoline-1,3-dione]
14 | 2.75 µM | Cc1ncsc1-c1ccc(CNC(=O)[C@@H]2C[C@@H](O)CN2C(=O)[C@@H](NC(=O)CCOCCOCCC(=O)N2CCN(c3ccc(Nc4nc5cccc(-c6ccc(S(C)(=O)=O)cc6)n5n4)cc3)CC2)C(C)(C)C)cc1 [JA-070, (2S,4R)-1-((S)-3,3-Dimethyl-2-(3-(2-(3-(4-(4-((5-(4-(methylsulfonyl)phenyl)-[1,2,4]triazolo[1,5-a]pyridin-2-yl)amino)phenyl)piperazin-1-yl)-3-oxopropoxy)ethoxy)propanamido)butanoyl)-4-hydroxy-N-(4-(4-methylthiazol-5-yl)benzyl)pyrrolidine-2-carboxamide]
